Seven compounds from patent EP4678638A1, “NEW E3 UBIQUITIN LIGASE LIGAND, PROTEIN DEGRADATION AGENT AND USE THEREOF” (priority 2023, dated 2024) can be followed below.

Molecules are shown by their SMILES. Read-outs that look alike come from different tables or passages of the source.

For assay [1], the system named is SR. Kind of assay: CCK-8 proliferation, SR. It is filed as cell-based, Human. Particulars: Table B10, compounds designed based on the IRAK4 inhibitors, SR cells, read-out: Inhibitory activity (IC50, nM) on tumor cell proliferation, SR. In short, it runs like this: (§1)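 Tumor cells were cultured at 37°C with 5% CO2, seeded, and after 24h treated with compounds at 10 concentrations starting at 10µM (5-fold serial dilutions).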

The subject of assay [2] is MM.1S. Kind of assay: CCK-8 proliferation, MM.1S. The class given is cell-based. The following applies: Table B10, compounds designed based on the IRAK4 inhibitors, MM.1S cells, read-out: Inhibitory activity (IC50, nM) on tumor cell proliferation, MM.1S. A digest of the protocol:
as §1

Assay [3] concerns Jurkat. As to the kind of experiment: CCK-8 proliferation, Jurkat. It is filed as cell-based, Human. The protocol: The tumor cells used herein were cultured in a cell culture medium listed in table A1 at 37°C in an incubator with 5% CO2. Prior to experimentation, all cell lines used were correctly identified by STR profiling, and tested negative for mycoplasma contamination using a mycoplasma detection kit through routine screenings. Table A1. Tumor cells and cell culture medium used in the present disclosure
IC50 values of the compounds of the present disclosure (including the compounds in Table 1, and compounds of examples) were measured using the Meilun Cell Counting Kit-8 kit from Dalian Meilun Biotech Co., Ltd. Assay details are as follows: tumor cells were seeded in a 96-well plate at a density listed in Table A2. After 24h, 100 µL of the inoculated cells were treated with 0.5µL of the compounds of the present disclosure (including the compounds in Tables 1 and 2, and compounds of examples) at 10 different successively decreasing concentrations (starting at the highest concentration of 10µM; 5-fold serial dilutions). After the cells were treated with the compounds of the present disclosure for a period of time, the cell viability detection reagent was added to the culture medium for cell viability assessment according to the instructions provided with the CCK-8 kit. […] The growth inhibition of the compounds of the present disclosure on cells was plotted by Prism Graphpad software, and the IC50 values of the compounds of the present disclosure were calculated therefrom. […] Seeding protocol and treatment time for tumor cells

The target of assay [4] is T1, IRAK4 (Homo sapiens, UniProt Q9NWZ3).
T1 construct: evaluate the effects of the compounds of the present disclosure on the expression of target proteins in cells; endogenous in cells; host or cells: hPBMC
T1 sequence (Q9NWZ3 1-460): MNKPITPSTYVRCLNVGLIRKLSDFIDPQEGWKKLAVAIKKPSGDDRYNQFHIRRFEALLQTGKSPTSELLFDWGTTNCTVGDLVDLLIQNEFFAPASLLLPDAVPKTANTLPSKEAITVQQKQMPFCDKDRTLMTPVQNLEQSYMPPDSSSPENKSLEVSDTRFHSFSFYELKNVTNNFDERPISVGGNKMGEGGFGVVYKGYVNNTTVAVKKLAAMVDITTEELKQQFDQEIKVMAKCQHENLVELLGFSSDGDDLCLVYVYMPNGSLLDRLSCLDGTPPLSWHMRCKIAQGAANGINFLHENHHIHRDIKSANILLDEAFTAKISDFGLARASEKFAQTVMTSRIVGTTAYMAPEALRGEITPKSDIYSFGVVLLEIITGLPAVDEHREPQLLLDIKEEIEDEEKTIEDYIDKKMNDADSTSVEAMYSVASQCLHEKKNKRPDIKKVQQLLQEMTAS
Kind of assay: Western blot degradation of IRAK4 (hPBMC). It is filed as cell-based. Particulars: Table D1. In short, it runs like this:
(§2)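 After compound exposure, cells were harvested and lysates run on SDS-PAGE, transferred to nitrocellulose and probed with antibodies. Remaining target (%) was computed from band grayscale relative to an internal control protein and normalised; degradation (%) was 100% minus that.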

For assay [5], the system named is CCRF-CEM. Kind of assay: CCK-8 proliferation, CCRF-CEM. It is filed as cell-based, Human. Particulars: Homo sapiens, CCRF-CEM; CCK-8; 96 hours; read-out: Inhibitory activity (IC50) on tumor cell proliferation, CCRF-CEM. In short, it runs like this: as §1
For assay [6], the target named is T2, human Cereblon WT GST-tagged protein (Homo sapiens, UniProt Q96SW2).
T2 construct: purchased CISBIO 64BDCRBNPEH
T2 sequence (Q96SW2 whole entry): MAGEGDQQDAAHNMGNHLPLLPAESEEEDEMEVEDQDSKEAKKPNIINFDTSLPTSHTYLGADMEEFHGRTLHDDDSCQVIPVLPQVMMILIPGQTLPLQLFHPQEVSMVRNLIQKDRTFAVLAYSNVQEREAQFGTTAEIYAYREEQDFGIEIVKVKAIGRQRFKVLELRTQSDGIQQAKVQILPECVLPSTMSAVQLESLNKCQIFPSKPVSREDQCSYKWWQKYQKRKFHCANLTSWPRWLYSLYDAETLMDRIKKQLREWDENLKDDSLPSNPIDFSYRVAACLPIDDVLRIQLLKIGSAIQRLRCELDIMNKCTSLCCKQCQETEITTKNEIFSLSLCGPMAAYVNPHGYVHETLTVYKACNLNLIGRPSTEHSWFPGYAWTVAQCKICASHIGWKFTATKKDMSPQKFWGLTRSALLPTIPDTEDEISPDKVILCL
Kind of assay: CRBN binding, HTRF (CEREBLON BINDING kit). Particulars: Table II-2, CRBN binding screening, HTRF; for inhibition at 0.5 µM: read-out: Inhibition rate (%) at 0.5µM; for inhibition at 2 µM: read-out: Inhibition rate (%) at 2 µM. A digest of the protocol: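 Competitive HTRF: GST-tagged human WT Cereblon mixed with compound, Thalidomide-Re tracer and GST Eu antibody, incubated 3 h at room temperature. Signals read at 620 and 665 nm.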

Assay [7] addresses T3, RSK1 (Homo sapiens, UniProt Q15418).
T3 construct: evaluate the effects of the compounds of the present disclosure on the expression of target proteins in cells; endogenous in cells; host or cells: hPBMC
Kind of assay: Western blot degradation of RSK1 (hPBMC). The class given is cell-based. Particulars: Table D8. A digest of the protocol:
as §2

Assay [8] addresses T4, RSK2 (Homo sapiens, UniProt P51812).
T4 construct: evaluate the effects of the compounds of the present disclosure on the expression of target proteins in cells; endogenous in cells; host or cells: hPBMC
As to the kind of experiment: Western blot degradation of RSK2 (hPBMC). Particulars: Table D8. The class given is cell-based. A digest of the protocol: as §2

Setting [9] is: Homo sapiens, Table B10, compounds designed based on the IRAK4 inhibitors, Jurkat cells, read-out: Inhibitory activity (IC50, nM) on tumor cell proliferation, Jurkat.
Where [10] appears, read: Homo sapiens, Jurkat, CCK-8, 96 hours, read-out: Inhibitory activity (IC50) on tumor cell proliferation, Jurkat.

T4 sequence (P51812 whole entry): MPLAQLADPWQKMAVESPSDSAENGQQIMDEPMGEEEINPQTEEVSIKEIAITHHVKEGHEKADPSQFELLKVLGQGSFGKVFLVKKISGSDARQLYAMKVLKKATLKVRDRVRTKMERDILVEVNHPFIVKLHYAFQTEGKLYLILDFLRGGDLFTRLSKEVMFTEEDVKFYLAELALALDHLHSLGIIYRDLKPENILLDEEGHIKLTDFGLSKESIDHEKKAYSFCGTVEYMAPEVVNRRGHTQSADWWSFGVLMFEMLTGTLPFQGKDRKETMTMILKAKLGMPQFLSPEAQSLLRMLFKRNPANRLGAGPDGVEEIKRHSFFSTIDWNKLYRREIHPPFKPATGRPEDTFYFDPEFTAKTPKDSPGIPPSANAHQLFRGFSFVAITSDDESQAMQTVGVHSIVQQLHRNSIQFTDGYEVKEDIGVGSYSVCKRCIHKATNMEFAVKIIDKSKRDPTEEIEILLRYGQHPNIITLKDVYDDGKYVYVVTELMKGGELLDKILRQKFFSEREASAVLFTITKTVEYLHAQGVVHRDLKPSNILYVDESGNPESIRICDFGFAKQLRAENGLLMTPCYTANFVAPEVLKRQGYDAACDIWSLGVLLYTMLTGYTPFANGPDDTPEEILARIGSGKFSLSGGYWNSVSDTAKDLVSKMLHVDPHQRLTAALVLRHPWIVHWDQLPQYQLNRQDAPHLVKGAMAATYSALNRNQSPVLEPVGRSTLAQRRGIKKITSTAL
T3 sequence (Q15418 whole entry): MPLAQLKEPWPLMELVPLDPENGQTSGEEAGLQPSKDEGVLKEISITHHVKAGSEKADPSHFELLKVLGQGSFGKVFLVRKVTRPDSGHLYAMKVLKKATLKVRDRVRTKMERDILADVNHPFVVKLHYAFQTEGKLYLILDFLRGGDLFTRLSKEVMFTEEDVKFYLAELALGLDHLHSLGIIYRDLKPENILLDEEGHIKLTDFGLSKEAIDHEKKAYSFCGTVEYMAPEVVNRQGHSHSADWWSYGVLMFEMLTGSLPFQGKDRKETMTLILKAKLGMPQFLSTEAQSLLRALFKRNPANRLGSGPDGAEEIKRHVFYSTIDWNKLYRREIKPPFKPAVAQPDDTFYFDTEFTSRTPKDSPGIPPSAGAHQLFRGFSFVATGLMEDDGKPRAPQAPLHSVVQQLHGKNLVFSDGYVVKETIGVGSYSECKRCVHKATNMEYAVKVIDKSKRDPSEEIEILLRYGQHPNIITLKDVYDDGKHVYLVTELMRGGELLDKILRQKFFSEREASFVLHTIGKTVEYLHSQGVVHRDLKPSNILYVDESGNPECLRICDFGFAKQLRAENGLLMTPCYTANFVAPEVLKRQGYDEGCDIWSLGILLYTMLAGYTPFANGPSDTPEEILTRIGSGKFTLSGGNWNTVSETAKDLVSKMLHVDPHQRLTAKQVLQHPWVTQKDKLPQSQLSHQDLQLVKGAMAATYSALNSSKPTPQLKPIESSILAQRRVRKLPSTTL

`O=C1CCC(c2ccc(CN3CCC(N4CCN(c5ccc6c(c5)nc(NC(=O)c5cccc(C(F)(F)F)c5)n6[C@H]5CC[C@@H](CO)CC5)CC4)CC3)cc2)C(=O)N1` (stereo partly shown) [GT-05020, N-(5-(4-(1-(4-(2,6-dioxopiperidin-3-yl)benzyl)piperidin-4-yl)piperazin-1-yl)-1-((1s,4s)-4-(hydroxymethyl)cyclohexyl) -1H-benzo[d]imidazol-2-yl)-3-(trifluoromethyl)benzamide]: the IC50 in assay [1] (Homo sapiens) is 500 to 1000 nM; in assay [2] (Homo sapiens, MM1.S), 500 to 1000 nM; in assay [3] (setting [9]), 500 to 1000 nM.
As for `O=C1CCC(Nc2cccc(CN3CCC(N4CCN(c5ccc6c(c5)nc(NC(=O)c5cccc(C(F)(F)F)c5)n6[C@H]5CC[C@@H](CO)CC5)CC4)CC3)c2)C(=O)N1` (stereo partly shown) [GT-05023, N-(5-(4-(1-(3-((2,6-dioxopiperidin-3-yl)amino)benzyl)piperidin-4-yl)piperazin-1-yl)-1-((1s,4s)-4-(hydroxymethyl)cyclohexyl) -1H-benzo[d]imidazol-2-yl)-3-(trifluoromethyl)benzamide], the IC50 in assay [1] (Homo sapiens) fell in the range of 500 to 1000 nM; in assay [2] (Homo sapiens, MM1.S), 500 to 1000 nM; in assay [3] (setting [9]) it was 500 to 1000 nM. The “Degradation of substrate protein IRAK4 (substrate protein remaining %)” value in assay [4] is recorded as “A (A is defined as 0% ≤ substrate protein remaining % ≤ 80%)”.
`O=C1CCN(c2ccc(CN3CCC(N4CCN(c5ccc6c(c5)nc(NC(=O)c5cccc(C(F)(F)F)c5)n6[C@H]5CC[C@@H](CO)CC5)CC4)CC3)cn2)C(=O)N1` [GT-05025, N-(5-(4-(1-((6-(2,4-dioxotetrahydropyrimidin-1(2H)-yl)pyridin-3-yl)methyl)piperidin-4-yl)piperazin-1-yl)-1-((1s,4s)-4-(hydroxymethyl)cyclohexyl) -1H-benzo[d]imidazol-2-yl)-3-(trifluoromethyl)benzamide]: the IC50 in assay [1] was in the range of 500 to 1000 nM; in assay [2] it was 500 to 1000 nM; in assay [3] (Table B10, compounds designed based on the IRAK4 inhibitors, Jurkat cells, read-out: Inhibitory activity (IC50, nM) on tumor cell proliferation, Jurkat), 500 to 1000 nM.
`CC1(C)CCC(c2ccc(Cl)cc2)=C(CN2CCN(c3ccc(C(=O)NS(=O)(=O)c4ccc(N[C@H](CCN5CCN(Cc6cc(N7CCC(=O)NC7=O)ncc6F)CC5)CSc5ccccc5)c(S(=O)(=O)C(F)(F)F)c4)cc3)CC2)C1` [GT-07716, (R)-4-(4-((4'-chloro-4,4-dimethyl-3,4,5,6-tetrahydro-[1,1'-biphenyl]-2-yl)methyl)piperazin-1-yl)-N-((4-((4-(4-((2-(2,4-dioxotetrahydropyrimidin-1(2H)-yl)-5-fluoropyridin-4-yl)methyl)piperazin-1-yl)-1-(phenylthio)butan-2-yl)amino)-3-((trifluoromethyl)sulfonyl)phenyl)sulfonyl)benzamide]: the IC50 in assay [5] is 10 to 50 nM; in assay [3] (setting [10]), 50 to 100 nM.
In the same order, the values of `CC1(C)CCC(c2ccc(Cl)cc2)=C(CN2CCN(c3ccc(C(=O)NS(=O)(=O)c4ccc(N[C@H](CCN5CCN(Cc6ccnc(N7CCC(=O)NC7=O)c6)CC5)CSc5ccccc5)c(S(=O)(=O)C(F)(F)F)c4)cc3)CC2)C1` [GT-07717, (R)-4-(4-((4'-chloro-4,4-dimethyl-3,4,5,6-tetrahydro-[1,1'-biphenyl]-2-yl)methyl)piperazin-1-yl)-N-((4-((4-(4-((2-(2,4-dioxotetrahydropyrimidin-1(2H)-yl)pyridin-4-yl)methyl)piperazin-1-yl)-1-(phenylthio)butan-2-yl)amino)-3-((trifluoromethyl)sulfonyl)phenyl)sulfonyl)benzamide] are 10 to 50 nM and 10 to 50 nM.
On to `C[C@@H]1CNC(=O)c2cc3ccc(C(=O)Nc4cnn(Cc5ccc(N6CCC(N7CCN(Cc8cncc(C9CCC(=O)NC9=O)c8)CC7)CC6)cc5)c4)nc3n21` (stereo partly drawn) [GT-07961, (9R)-N-(1-(4-(4-(4-((5-(2,6-dioxopiperidin-3-yl)pyridin-3-yl)methyl)piperazin-1-yl)piperidin-1-yl)benzyl)-1H-pyrazol-4-yl)-9-methyl-6-oxo-6,7,8,9-tetrahydropyrido[3',2':4,5]pyrrolo[1,2-a]pyrazine-2-carboxamide], for which, in assay [6], the inhibition at 0.5 µM was 20 to 30% and the inhibition at 2 µM was 60 to 80%. Besides, the “Degradation of substrate protein RSK1 (substrate protein remaining %)” value in assay [7] is recorded as “A (A is defined as 0% ≤ substrate protein remaining % ≤ 80%)”. In addition, the “Degradation of substrate protein RSK2 (substrate protein remaining %)” value in assay [8] is given as “A (A is defined as 0% ≤ substrate protein remaining % ≤ 80%)”.
`C[C@@H]1CNC(=O)c2cc3ccc(C(=O)Nc4cnn(Cc5ccc(N6CCC(N7CCN(Cc8cc(N9CCC(=O)NC9=O)cnc8F)CC7)CC6)cc5)c4)nc3n21` [GT-07962, (R)-N-(1-(4-(4-(4-((5-(2,4-dioxotetrahydropyrimidin-1(2H)-yl)-2-fluoropyridin-3-yl)methyl)piperazin-1-yl)piperidin-1-yl)benzyl)-1H-pyrazol-4-yl)-9-methyl-6-oxo-6,7,8,9-tetrahydropyrido[3',2':4,5]pyrrolo[1,2-a]pyrazine-2-carboxamide]: in assay [6], the inhibition at 0.5 µM lay in the range of 20 to 30% and the inhibition at 2 µM fell in the range of 53 to 60%. The “Degradation of substrate protein RSK1 (substrate protein remaining %)” value in assay [7] is reported as “A (A is defined as 0% ≤ substrate protein remaining % ≤ 80%)”. The “Degradation of substrate protein RSK2 (substrate protein remaining %)” value in assay [8] is on record as “A (A is defined as 0% ≤ substrate protein remaining % ≤ 80%)”.
